In patent publication US10100331B2, “Reagent for gene-drug therapeutics” (Agency for Science, Technology and Research, priority 2012, dated 2018):
Read-outs that look alike come from different tables or passages of the source.

What was measured:
acetylated α-tubulin = experiment: Tubulin acetylation immunostaining; type: cell-based; settings: for tubulin acetylation: differentiated Neuro2A, 2 h, Tubastatin A 10 μM, TSA 50 nM, Paclitaxel 25 nM, SAHA 5 μM, Entinostat 10 μM, Tacedinaline 50 μM
Experimental: Then, cells were fixed with 4% formaldehyde and co-stained for acetylated α-tubulin and β-tubulin. Confocal images of the individual and merged channels are shown. Bar represents 20 μm. Further, a table is presented, showing the reagents and their respective targets, as well as the concentration at which the experiment was done.
FIG. 35 depicts micrographs showing the transient effect of Tubastatin A on tubulin acetylation. Neuro2a cells were treated with Tubastatin A (10 μM) for 12 hours. Then, chemicals were removed by replacement with complete media and cells were further incubated for 48 h. At various time points, cells were fixed with 4% formaldehyde and stained for acetylated α-tubulin (Green) and nucleus (Hoechst stain, Blue). Representative images were shown. Bar represents 20 μm.
Control and 10 μM differentiated Neuro2a Cells were fixed with 4% formaldehyde in 1×PBS for 20 min at room temperature and subsequently permeabilized in 0.5% Triton-X100 in 1×PBS. Then, the samples fixed cells were blocked with normal goat serum (1:10; Dako, Glostrup, Denmark) in 0.1% Triton X-100/1×PBS for 30 min at 37° C. The cells were then incubated with primary antibodies against acetylated α-Tubulin (Sigma Aldrich T7451, 1:200 dilution) or TuJ (R&D Systems MAB1195, 1:50 dilution) in 0.1% TritonX-100/1% BSA/1×PBS at 37° C. for 2 h and washed three times in 1×PBS. […] The cells were washed three times in 1×PBS and mounted. Image acquisition was performed using the Zeiss LSM710 with Axio Observer.Z1 confocal microscope system (Oberkochen, Germany). All images were taken with identical laser and optical settings.

HDAC6 = molecular target: T1, HDAC6 (Homo sapiens, UniProt Q9UBN7); settings: Targeted HDAC/Sirtuin: 6; cited from earlier work
T1 sequence (Q9UBN7 1-1215): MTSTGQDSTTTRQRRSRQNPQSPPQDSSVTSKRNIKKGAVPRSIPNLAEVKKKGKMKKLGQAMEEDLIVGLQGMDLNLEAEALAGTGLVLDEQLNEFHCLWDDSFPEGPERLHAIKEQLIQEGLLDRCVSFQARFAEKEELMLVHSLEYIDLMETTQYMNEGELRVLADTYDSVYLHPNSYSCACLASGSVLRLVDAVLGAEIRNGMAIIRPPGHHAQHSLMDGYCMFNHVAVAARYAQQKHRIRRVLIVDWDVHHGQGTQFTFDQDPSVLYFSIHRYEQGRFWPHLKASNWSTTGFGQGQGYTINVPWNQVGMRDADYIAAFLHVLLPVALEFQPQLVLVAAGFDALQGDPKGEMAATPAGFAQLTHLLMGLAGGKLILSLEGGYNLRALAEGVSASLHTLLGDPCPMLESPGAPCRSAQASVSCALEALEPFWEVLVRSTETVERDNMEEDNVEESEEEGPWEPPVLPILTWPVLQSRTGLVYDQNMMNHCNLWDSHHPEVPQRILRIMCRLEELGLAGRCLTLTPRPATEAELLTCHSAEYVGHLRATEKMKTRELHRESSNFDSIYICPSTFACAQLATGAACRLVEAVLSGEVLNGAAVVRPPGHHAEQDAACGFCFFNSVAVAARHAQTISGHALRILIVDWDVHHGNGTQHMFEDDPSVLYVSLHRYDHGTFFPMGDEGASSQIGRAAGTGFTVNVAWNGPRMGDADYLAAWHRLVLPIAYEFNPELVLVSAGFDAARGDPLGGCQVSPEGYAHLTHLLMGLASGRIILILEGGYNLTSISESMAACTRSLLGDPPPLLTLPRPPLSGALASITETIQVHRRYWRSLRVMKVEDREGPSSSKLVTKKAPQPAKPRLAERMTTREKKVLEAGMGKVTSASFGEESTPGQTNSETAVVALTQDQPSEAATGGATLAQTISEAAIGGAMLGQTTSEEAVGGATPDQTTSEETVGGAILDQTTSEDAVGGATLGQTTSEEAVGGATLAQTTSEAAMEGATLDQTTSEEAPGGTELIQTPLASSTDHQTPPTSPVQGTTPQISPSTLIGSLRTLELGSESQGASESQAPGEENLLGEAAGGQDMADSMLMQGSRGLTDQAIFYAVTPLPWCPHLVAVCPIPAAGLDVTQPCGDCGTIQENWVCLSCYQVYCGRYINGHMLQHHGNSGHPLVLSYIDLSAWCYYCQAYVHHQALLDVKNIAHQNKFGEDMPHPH

Neuro2A cells = type: cell-based; settings: for cell death at the concentrations used: Dynasore 30 μg/ml, Filipin III 5 μg/ml, Rottlerin […]; for uptake of polyplex: inhibitor 45 min prior transfection, LPEI/pDNA N/P=20, 4 h
Experimental: A. Native and differentiated (10 μM RA) Neuro2a was treated with 2.5 μg/ml rottlerin, 5 μg/ml Filipin III or 30 μg/ml Dynasore for 45 min prior transfection. DMSO/0.5% FBS was used as control for treatment. After transfection with polyplex (N/P=20), cells were incubated at 4° C. or 37° C. for 4 h. Extracellular pDNA was removed by pAA/DNAse and cells were trypsinized. Then, samples were treated with pAA/urea lysis buffer and the absolute copy number of pDNA was quantified by qPCR. In similar experiments, native Neuro2A cells were incubated at 37° C. for 24 h post transfection. B. Representative fluorescent images (bottom rows), acquired 48 h post transfection. C. Percentage of cells expressing EGFP was counted. Significant differences in transfection efficiencies were calculated using the two tailed student's t-test. The data shown were the mean±s.e.m., n=4. *, p<0.05; **, p<0.005.
For studies using inhibitors, cells were incubated with Dynasore (30 μg/ml), Filipin III (5 μg/ml) or Rottlerin (2.5 μg/ml) in DMEM (0.5% FBS) for 45 min prior transfection. Cells were further incubated in DMEM (0.5% FBS) containing corresponding inhibitors post transfection.
To quantify DNA internalized by the cells, the supernatant was removed and the cells were washed once with 1×PBS and incubated in DMEM containing pAA/DNAse for 2 h at 4° C. Next, the cells were trypsinized and treated with pAA/urea lysis buffer. Efficiency of DNA release by pAA/urea lysis buffer and pAA/DNase was evaluated (Supplementary FIGS. 15 & 18). […] Primers specific for EGFP, forward primer (5′-3′, […]; SEQ ID NO:1) and reverse primer (5′-3′, […]; SEQ ID NO:2) were used. PCR quantification of the pDNA was performed as previously described (Yoong, L.F., G. Wan, and H.P. Too. Mol Cell Neurosci, 2009. 41(4): p. 464-73). The absolute amount of pDNA was determined using plasmid standards by interpolation.

HDAC3 = HDAC3 (Homo sapiens, UniProt O15379); settings: Targeted HDAC/Sirtuin: 3; cited from earlier work
Sequence of HDAC3 (O15379 whole entry): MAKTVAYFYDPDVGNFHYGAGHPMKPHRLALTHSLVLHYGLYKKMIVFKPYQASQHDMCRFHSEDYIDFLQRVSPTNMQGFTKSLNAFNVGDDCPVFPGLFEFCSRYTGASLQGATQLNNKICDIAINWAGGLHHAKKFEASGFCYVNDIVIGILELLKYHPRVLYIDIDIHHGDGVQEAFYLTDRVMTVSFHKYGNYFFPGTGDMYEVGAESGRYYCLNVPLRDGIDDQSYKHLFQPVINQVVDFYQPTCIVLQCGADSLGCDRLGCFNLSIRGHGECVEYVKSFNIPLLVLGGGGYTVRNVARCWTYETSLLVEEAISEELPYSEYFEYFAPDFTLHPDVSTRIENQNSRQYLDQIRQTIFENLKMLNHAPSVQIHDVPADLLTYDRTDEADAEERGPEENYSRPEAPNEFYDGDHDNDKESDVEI
Sequence of HDAC3 (Q9Y618 395-489 partner limits assumed): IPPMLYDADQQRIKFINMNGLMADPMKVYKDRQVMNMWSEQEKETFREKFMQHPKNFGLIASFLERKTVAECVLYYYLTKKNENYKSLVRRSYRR

human fetal MSC cells [1] = experiment: GFP transfection of human fetal MSC; type: cell-based; settings: PEIMAX/PMAXGFP N/P=10; 100 nM Trichostatin A
Experimental: Next, cells were harvested and GFP expressions were analysed by FACS analysis. Graph represents % of GFP+ cells. Error bar represents the standard error mean (S.E.M.) of n=3. Statistical significance of transfection efficiencies between cells exposed to polyplexes only and other conditions were obtained using two tailed student's t-test; *, p<0.01. Representative images of the transfected cells of each condition are presented.
Human fetal MSC cells were transfected with PEIMAX/PMAXGFP complex at N/P=10. […] Three days after transfection, media was replaced with fresh culture media. Bright field and fluorescent images were taken at Day 2, 7, 14 and 21 days post transfection. Representative imaged are presented.

PC3 cells = experiment: GFP transfection of PC3 cells (FACS); type: cell-based, human; settings: PEIMAX/PMAXGFP N/P=20
Experimental: Next, cells were harvested and GFP expression was analysed by FACS analysis. […] Representative images of the FACS analysis and transfected cells of each condition are presented. Error bar represents the standard error mean (S.E.M.) of n=3.

[2] = tested on: differentiated Neuro2A cells; experiment: Transfection efficiency (EGFP positive cells) of differentiated Neuro2A; type: cell-based; settings: LPEI/pDNA N/P=20; chloroquine 25 or 100 μM, PLUS 10 or 20 μL, INF7 10 or 20 μg; 48 h
HDAC1 = HDAC1 (Homo sapiens, UniProt Q13547); settings: Targeted HDAC/Sirtuin: 1; cited from earlier work
Sequence of HDAC1 (Q13547 whole entry, species assumed): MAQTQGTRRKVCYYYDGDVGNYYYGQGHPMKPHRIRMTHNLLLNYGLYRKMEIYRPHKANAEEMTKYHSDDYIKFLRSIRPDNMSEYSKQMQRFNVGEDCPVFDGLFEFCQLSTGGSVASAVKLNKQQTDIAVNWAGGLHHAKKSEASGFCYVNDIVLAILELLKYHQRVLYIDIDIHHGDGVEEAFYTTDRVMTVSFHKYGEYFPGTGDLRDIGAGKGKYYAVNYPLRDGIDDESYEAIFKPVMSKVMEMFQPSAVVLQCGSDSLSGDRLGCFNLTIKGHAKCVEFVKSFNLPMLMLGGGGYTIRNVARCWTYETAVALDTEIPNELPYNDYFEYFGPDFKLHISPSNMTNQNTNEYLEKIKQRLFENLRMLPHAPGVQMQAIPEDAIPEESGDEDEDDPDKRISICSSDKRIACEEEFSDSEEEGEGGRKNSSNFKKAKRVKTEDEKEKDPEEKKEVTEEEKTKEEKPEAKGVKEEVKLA

KLF4 and c-Myc = KLF4 and c-Myc expression in HaF (PCR); type: cell-based, human; settings: 1 mM VPA, up to 72 h
Experimental: Fibroblast cells were treated with 1 mM VPA for up to 3 days. At the end of incubation, the cells were collected and subjected to PCR analysis. Cells with no exposure to VPA (3 days) serve as control. Graphs present fold change to control after normalization with GAPDH.

U251MG cells [3] = experiment: Viable cell number after p53 transfection with transfection enhancers; type: cell-based; settings: for cell death / cell number with p53 transfection: pEGFP-N1-p53, 10 μM Tubastatin A, 5 μM SAHA
MICA and NKG2D = MICA and NKG2D expression in PC3 cells (PCR); type: cell-based, human; settings: 5 μM SAHA, up to 48 hours
Experimental: At the end of the incubation, the cells were collected and subjected to PCR analysis. […] The histogram here represented fold change to control after normalization with GAPDH.

human fetal MSC cells [4] = experiment: BMP2 expression in human MSC (qPCR); type: cell-based; settings: PEIMAX/PMAXGFP-BMP2 N/P=10; 3 day post transfection; 5 μM Tubastatin A, 150 nM TSA
U251MG cells [5] = experiment: GFP transfection of U251MG cells (FACS); type: cell-based; settings: PEIMAX/PMAXGFP N/P=10; 10 μM Tubastatin A, 5 μM SAHA
Experimental: Furthermore, representative images of the FACS analysis and transfected cells for each conditions are presented. Error bar represents the standard error mean (S.E.M.) of n=3. […] Next, cells were harvested and GFP expressions were analysed by FACS analysis.

[6] = differentiated (10 μM RA) Neuro2A

For Nc1ccccc1NC(=O)c1ccc(CNC(=O)OCc2cccnc2)cc1 [Entinostat], the tubulin acetylation (acetylated α-tubulin) was “not”.

For O=C(/C=C/c1cccc(S(=O)(=O)Nc2ccccc2)c1)NO [Belinostat], the IC50 (HDAC6) is given as 0.00041 mM.

With CC(=O)c1c(O)c(C)c(O)c(Cc2c(O)c3c(c(C(=O)/C=C/c4ccccc4)c2O)OC(C)(C)C=C3)c1O [Rottlerin] the “cell death at the concentrations used” value (Neuro2A cells) was “no evidence of cell death”, the uptake of polyplex (Neuro2A cells; [6]) was “not in differentiated cells” and the uptake of polyplex (Neuro2A cells; native Neuro2A) was “reduced the uptake of polyplex significantly”.

For MC-1293, the IC50 (HDAC3) is given as 288 µM.

For O=C(N/N=C/c1ccc(O)c(O)c1)c1cc2ccccc2cc1O [Dynasore], the uptake of polyplex (Neuro2A cells; [6]) was “significantly inhibited the uptake of polyplex” and the uptake of polyplex (Neuro2A cells; native Neuro2A) was “significantly inhibited the uptake of polyplex”.

With CC(/C=C/C(=O)NO)=C\[C@@H](C)C(=O)c1ccc(N(C)C)cc1 [Trichostatin A] the enhancement of transfection (human fetal MSC cells [1]) was “significant enhancement of transfection”, the tubulin acetylation (acetylated α-tubulin) was “markedly enhanced tubulin acetylation” and the enhancement of transfection (PC3 cells) was “significant enhancement of transfection”.

With CCN(CC)CCCC(C)Nc1ccnc2cc(Cl)ccc12 (stereo not shown) [chloroquine] the “enhancement of transfection, reagent added post-transfection” value [2] was “did not show cumulative enhancement of transfection”.

In the case of CCCC(CCC)C(=O)O [Valproic Acid], the IC50 (HDAC6) is given as 11.8 mM, the IC50 (HDAC1) is given as 442 µM and the “expressions of cMyc and KLF4” value (KLF4 and c-Myc) is given as “Gradual increment”.

With O=C(CCCCCCC(=O)Nc1ccccc1)NO [SAHA, vorinostat] the “cell number on increasing duration of incubation with SAHA” value (U251MG cells [3]; p53, DOPE/CHEMS, 5 μM SAHA for 48, 72 and 96 h) was “did not further reduce the cell number”, the “cell death / cell number with p53 transfection” value (U251MG cells [3]) was “resulted in more cell death” and the “expression of MICA and NKG2D” value (MICA and NKG2D) was “induced up-regulation of MICA and NKG2D”. The tubulin acetylation (acetylated α-tubulin) was “markedly enhanced tubulin acetylation”.

With CC(=O)Nc1ccc(C(=O)Nc2ccccc2N)cc1 [Tacedinaline] the tubulin acetylation (acetylated α-tubulin) was “not”.

In the case of CN1CCc2c(c3ccccc3n2Cc2ccc(C(=O)NO)cc2)C1 [Tubastatin A], the “BMP2 expression, fold over the negative control” value (human fetal MSC cells [4]) is reported as ~20,000 fold, the “cell death / cell number with p53 transfection” value (U251MG cells [3]) is reported as “did not result in greater reduction of cell number” and the “duration of effect on tubulin acetylation” value (acetylated α-tubulin; Neuro2a, Tubastatin A 10 μM for 12 hours then washout) is reported as less than 24 h. The tubulin acetylation (acetylated α-tubulin) was “markedly enhanced tubulin acetylation”, the enhancement of transfection (PC3 cells) was “significant enhancement of transfection” and the transfection efficiency (U251MG cells [5]) was “significant enhancement in transfection efficiency”.

In the case of CCCCC[C@@H](O)[C@H]1C(=O)O[C@H](C)[C@@H](O)/C=C/C=C/C=C/C=C/C=C(\C)[C@@H](O)C[C@H](O)C[C@H](O)C[C@H](O)C[C@H](O)C[C@H](O)C[C@@H]1O [Filipin III], the “cell death at the concentrations used” value (Neuro2A cells) is reported as “no evidence of cell death”, the uptake of polyplex (Neuro2A cells; [6]) is reported as “did not affect polyplex uptake” and the uptake of polyplex (Neuro2A cells; native Neuro2A) is reported as “did not affect polyplex uptake”.

For C/C=C1\NC(=O)[C@H]2CSSCC/C=C/[C@H](CC(=O)N[C@H](C(C)C)C(=O)N2)OC(=O)[C@H](C(C)C)NC1=O [Romidepsin], the IC50 (HDAC1) is given as 0.08 µM.

With CC(=O)O[C@H]1C(=O)[C@@]2(C)[C@H]([C@H](OC(=O)c3ccccc3)[C@]3(O)C[C@H](OC(=O)[C@H](O)[C@@H](NC(=O)c4ccccc4)c4ccccc4)C(C)=C1C3(C)C)[C@]1(OC(C)=O)CO[C@@H]1C[C@@H]2O [paclitaxel] the tubulin acetylation (acetylated α-tubulin) was “markedly enhanced tubulin acetylation”.
